Data on six compounds can be found in patent US8575208B2, “Inhibitors of serine proteases” (priority 2007, dated 2013).

pKi: −log10 of the molar value. A value given as a limit tells only on which side of the number the result lay.

The target in this test is T1, HCV NS3 serine protease (UniProt Q9WMX2).
T1 construct: fused on or other part: Assay 1: C-terminal hexa-histidine tag
T1 sequence (Q9WMX2 1027-1657): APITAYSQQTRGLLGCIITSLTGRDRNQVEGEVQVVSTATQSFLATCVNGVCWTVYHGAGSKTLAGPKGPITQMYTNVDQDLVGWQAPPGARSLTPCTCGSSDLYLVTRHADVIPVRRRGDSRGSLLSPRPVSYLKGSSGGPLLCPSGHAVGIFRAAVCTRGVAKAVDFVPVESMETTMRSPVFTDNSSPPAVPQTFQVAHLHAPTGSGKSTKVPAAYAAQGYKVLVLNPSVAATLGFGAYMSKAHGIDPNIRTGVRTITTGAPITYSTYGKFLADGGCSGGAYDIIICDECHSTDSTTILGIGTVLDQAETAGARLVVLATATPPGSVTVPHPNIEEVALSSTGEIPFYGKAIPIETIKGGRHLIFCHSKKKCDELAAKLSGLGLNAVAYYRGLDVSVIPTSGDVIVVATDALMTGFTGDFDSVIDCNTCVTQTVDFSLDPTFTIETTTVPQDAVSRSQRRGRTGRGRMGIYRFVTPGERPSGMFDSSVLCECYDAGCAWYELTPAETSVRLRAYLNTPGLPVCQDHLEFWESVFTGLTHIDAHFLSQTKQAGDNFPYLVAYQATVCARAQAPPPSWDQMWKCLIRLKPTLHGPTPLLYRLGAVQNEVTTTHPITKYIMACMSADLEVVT
The test is described as follows: HCV enzymatic assay (HCV NS3 peptide cleavage assays, apparent Ki). To be noted: serine protease activity measured using the HCV Enzyme Assays; Assay No. 1 / Assay No. 2 not given. The format is biochemical, hepatitis C virus. As to the method:
This assay is a modification of that described by Landro, et al. (Landro J A, Raybuck S A, Luong Y C, O'Malley E T, Harbeson S L, Morgenstern K A, Rao G and Livingston D L. Biochemistry 1997, 36, 9340-9348), and uses a peptide substrate (NS5AB), based on the NS5A/NS5B cleavage site for genotype la HCV. The substrate stock solution (25 mM) was prepared in DMSO containing 0.2 M DTT and stored at −20° C. A synthetic peptide cofactor (KK4A) was used as a substitute for the central core region of NS4A. The reaction was performed in a 96-well microtiter plate format using 25 ηM to 50 ηM HCV NS3 protease domain in buffer containing 50 mM HEPES pH 7.8, 100 mM NaCl, 20% glycerol, 5 mM DTT and 25 μM KK4A. The final DMSO concentration was no greater than 2% v/v. Reactions were quenched by addition of trifluoroacetic acid (TFA) to yield a final concentration of 2.5%.
The SMSY product was separated from substrate and KK4A using a microbore separation method. The instrument used was a Agilent 1100 with a G1322A degasser, either a G1312A binary pump or a G1311A quaternary pump, a G1313A autosampler, a G1316A column thermostated chamber and a G1315A diode array detector. The column was a Phenomenex Jupiter, 5 μm C18, 300 Å, 150×2 mm, P/O 00F-4053-B0, with a flow-rate of 0.2 mL/min. The column thermostat was at 40° C. Mobile phases were HPLC grade H2O/0.1% TFA (solvent A) and HPLC grade CH3CN/0.1% TFA (solvent B). The SMSY product peak was quantitated using the data collected at […].
This assay follows the cleavage of a peptide substrate by full-length hepatitis C viral protein NS3•4A. One of three peptide substrates based on the NS5A/NS5B cleavage site for genotype 1a HCV is used to measure enzyme activity. All substrate stock solutions (25 mM) were prepared in DMSO containing 0.2M DTT and stored at −20° C. A synthetic peptide cofactor (NS4A Peptide) was used to supplement NS4A. Peptide sequences are shown below. The hydrolysis reaction was performed in a 96-well microtiter plate format using 100 ηM to 125 ηM HCV NS3•4A in buffer containing 50 mM HEPES pH 7.8, 100 mM NaCl, 20% glycerol, 5 mM DTT and 25 μM NS4A Peptide. The final DMSO concentration was no greater than 2% v/v. Reactions using NS5AB or NS5AB-EDANS as substrate were quenched by the addition of 10% trifluoroacetic acid (TFA) to yield a final TFA concentration of 2.5%. Reactions using FITC-NS5AB-1 as substrate were quenched by the addition of 0.4M formic acid to yield a final concentration of 0.08M acid.
Enzymatic activity was assessed by separation of substrate and products by reverse phase HPLC. The instrument used was a Agilent 1100 with a G1322A degasser, either a G1312A binary pump or a G1311A quaternary pump, a G1313A autosampler, a G1316A column thermostated chamber, a G1321A fluorescence detector and a G1315A diode array detector. The column thermostat was at 40° C. For substrate NS5AB the column was a Phenomenex Jupiter, 5 μm C18, 300 Å, 150×2 mm, P/O 00F-4053-B0, with a flow-rate of 0.2 mL/min using HPLC grade H2O/0.1% TFA (solvent A) and HPLC grade CH3CN/0.1% TFA (solvent B) as mobile phases. The C-terminal product peak (NH2-SMSY-COOH) was quantitated using the absorbance data collected at 210 ηm. For substrate NS5AB-EDANS the column was a Phenomenex Aqua, 5 μm C18, 125 Å, 50×4.6 mm, P/O 00B-4299-E0, with a flow-rate of 1.0 mL/min using HPLC grade H2O/0.1% TFA (solvent A) and HPLC grade CH3CN/0.1% TFA (solvent B) as mobile phases. The C-terminal product peak (NH2-SMSYT-Asp(EDANS)-KKK-COOH) was quantitated using the fluorescence data collected at 350 ηm excitation/490 ηm emission. For substrate FITC-NS5AB-1 the column was a Phenomenex Prodigy, 5 μm ODS(2), 125 Å, 50×4.6 mm, P/O 00B-3300-E0, with a flow-rate of 1.0 mL/min using 10 mM sodium phosphate pH 7.0 in HPLC grade H2O (solvent A) and 65% HPLC Grade CH3CN/35% 10 mM sodium phosphate pH 7.0 in HPLC grade H2O (solvent B) as mobile phases. […]
Take `CCC[C@H](NC(=O)[C@@H]1C[C@@]2(CN(c3cccc(Cl)c3)C(=O)O2)CN1C(=O)[C@@H](NC(=O)OC1CCCC1)C(C)(C)C)C(=O)C(=O)NC1CC1` [compound 7, Cyclopentyl (S)-1-((5S,8S)-3-(3-chlorophenyl)-8-((S)-1-(cyclopropylamino)-1,2-dioxohexan-3-ylcarbamoyl)-2-oxo-1-oxa-3,7-diazaspiro[4.4]nonan-7-yl)-3,3-dimethyl-1-oxobutan-2-ylcarbamate]: the negative-log Ki (pKi) (commonly −log10 of the Ki, conventionally taken in molar units) is greater than 6.39. The figure for `CCC[C@H](NC(=O)[C@@H]1C[C@]2(CN(c3ccccc3)C(=O)O2)CN1C(=O)[C@@H](NC(=O)CC1CCCCC1)C(C)(C)C)C(=O)C(=O)NC1CC1` [compound 5, (5R,8S)-7-((S)-2-(2-cyclohexylacetamido)-3,3-dimethylbutanoyl)-N-((S)-1-(cyclopropylamino)-1,2-dioxohexan-3-yl)-2-oxo-3-phenyl-1-oxa-3,7-diazaspiro[4.4]nonane-8-carboxamide] is less than 6.15; for `CCC[C@H](NC(=O)[C@@H]1C[C@]2(CC(=O)N(c3cccc(Cl)c3)C2)CN1C(=O)[C@@H](NC(=O)CC1CCCCC1)C(C)(C)C)C(=O)C(=O)NC1CC1` [compound 6] it is 6.15 to 6.39.

Take `CCC[C@H](NC(=O)[C@@H]1C[C@]2(CC(=O)N(c3ccccc3)C2)CN1C(=O)[C@@H](NC(=O)OC1CCCC1)C(C)(C)C)C(=O)C(=O)NC1CC1` [compound 4, cyclopentyl (S)-1-((3S,5S)-3-((S)-1-(cyclopropylamino)-1,2-dioxohexan-3-ylcarbamoyl)-8-oxo-7-phenyl-2,7-diazaspiro[4.4]nonan-2-yl)-3,3-dimethyl-1-oxobutan-2-ylcarbamate]: the negative-log Ki (pKi) was greater than 6.39. Take `CCC[C@H](NC(=O)[C@@H]1C[C@@]2(CC(=O)N(c3ccccc3)C2)CN1C(=O)[C@@H](NC(=O)OC1CCCC1)C(C)(C)C)C(=O)C(=O)NC1CC1` [compound 1, Cyclopentyl-(S)-1-((3S,5R)-3-((S)-1-(cyclopropylamino)-1,2-dioxohexan-3-ylcarbamoyl)-8-oxo-7-phenyl-2,7-diazaspiro[4.4]nonan-2-yl)-3,3-dimethyl-1-oxobutan-2-ylcarbamate]: the negative-log Ki (pKi) is 6.15 to 6.39.

Consider `CCC[C@H](NC(=O)[C@@H]1C[C@@]2(CC(=O)N(c3cccc(Cl)c3)C2)CN1C(=O)[C@@H](NC(=O)CC1CCCCC1)C(C)(C)C)C(=O)C(=O)NC1CC1` [compound 2], for which the pKi was less than 6.15.
